# Patent publication EP2246337A1, “Use of isoxazole derivatives as cyclooxygenase inhibitors” (Universita' degli Studi di Bari, priority 2004, dated 2005)
# Where two headings read alike, the source gives them in different places. Marks after values point to notes of the source that are not given here.
# How the values were obtained:
# platelet COX-1 = target: T1, platelet COX-1 (Homo sapiens, UniProt P23219); experiment: COX-1 assay in isolated human whole blood allowed to clot (serum TXB2); type: cell-based; conditions: for IC50: isolated human whole blood clotting 1 hour at 37°C, TXB2, means of at least two experiments
# T1 construct: 1 ml aliquots of isolated whole blood were immediately transferred into glass test tubes and kept at a temperature of 37°C; endogenous in cells; host or cells: platelets in human whole blood (healthy volunteers / study subjects)
# T1 sequence (P23219 24-599): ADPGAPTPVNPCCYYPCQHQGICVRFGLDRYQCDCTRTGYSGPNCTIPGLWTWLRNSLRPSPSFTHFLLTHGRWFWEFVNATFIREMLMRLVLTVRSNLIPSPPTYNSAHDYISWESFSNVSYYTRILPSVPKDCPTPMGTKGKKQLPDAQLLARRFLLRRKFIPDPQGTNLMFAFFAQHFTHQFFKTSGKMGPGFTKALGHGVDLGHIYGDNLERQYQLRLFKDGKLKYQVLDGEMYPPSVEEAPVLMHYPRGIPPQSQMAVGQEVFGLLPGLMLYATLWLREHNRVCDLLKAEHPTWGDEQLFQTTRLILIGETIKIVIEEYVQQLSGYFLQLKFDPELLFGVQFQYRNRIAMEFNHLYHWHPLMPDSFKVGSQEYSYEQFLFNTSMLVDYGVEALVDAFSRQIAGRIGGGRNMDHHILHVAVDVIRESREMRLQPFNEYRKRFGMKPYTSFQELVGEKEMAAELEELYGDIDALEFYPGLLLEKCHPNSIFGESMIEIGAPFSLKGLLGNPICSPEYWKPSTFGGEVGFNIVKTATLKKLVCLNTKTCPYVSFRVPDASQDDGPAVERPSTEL
# Method: 11 healthy volunteers (6 females aged between 25 and 29 years) were enrolled to participate in the study after each having given their written approval.
# 1 ml aliquots of isolated whole blood were immediately transferred into glass test tubes and kept at a temperature of 37°C for 1 hour. The serum was separated by centrifugation (10 min at 3000 rpm) and kept at -70°C until assayed for thromboxane (TX)B2.
# From 4 to 9 different concentrations of each compound were incubated with heparinised isolated whole blood samples in the presence of LPS (10 micrograms/ml) for 24 hours or with isolated whole blood samples allowed to clot at 37°C for 1 hour, in order to examine the concentration-dependence of COX-2 vs. COX-1 inhibition, respectively.
# The concentrations of PGE2 and TXB2 were measured by radioimmunological assays (Patrono C. et al.. Low dose aspirin and inhibition of thromboxane B2 production in healthy subjects. Thromb. Res. 1980; 17: 317-27; Ciabattoni G. et al. J Endocrinol Invest 1979; 2:173-182). Isolated plasma and serum samples were diluted in the standard diluent of the assay (0.02M phosphate buffer, pH 7.4) and assayed in a volume of 1.5 ml at a final dilution of 1:50-1:30.000. 4000 d.p.m. of [^3H]-PGE2 or [^3H]-TXB2 were used and specific anti-PGE2 and anti-TXB2 antibody diluted 1:100,000 and 1:120,000, respectively. The least detectable concentration was 1-2 pg/ml for both prostanoids.
# monocyte COX-2 = target: T2, monocyte COX-2 (Homo sapiens, UniProt P35354); experiment: COX-2 assay in LPS-stimulated isolated human whole blood (plasma PGE2); type: cell-based; conditions: for IC50: heparinised isolated human whole blood, LPS 10 micrograms/ml, 24 hours, PGE2, means of at least two experiments
# T2 construct: isolated peripheral venous blood samples containing 10 IU of sodium heparin were incubated in the laboratory in the presence of LPS; endogenous in cells; host or cells: monocytes in LPS-stimulated heparinised human whole blood
# T2 sequence (P35354 18-604): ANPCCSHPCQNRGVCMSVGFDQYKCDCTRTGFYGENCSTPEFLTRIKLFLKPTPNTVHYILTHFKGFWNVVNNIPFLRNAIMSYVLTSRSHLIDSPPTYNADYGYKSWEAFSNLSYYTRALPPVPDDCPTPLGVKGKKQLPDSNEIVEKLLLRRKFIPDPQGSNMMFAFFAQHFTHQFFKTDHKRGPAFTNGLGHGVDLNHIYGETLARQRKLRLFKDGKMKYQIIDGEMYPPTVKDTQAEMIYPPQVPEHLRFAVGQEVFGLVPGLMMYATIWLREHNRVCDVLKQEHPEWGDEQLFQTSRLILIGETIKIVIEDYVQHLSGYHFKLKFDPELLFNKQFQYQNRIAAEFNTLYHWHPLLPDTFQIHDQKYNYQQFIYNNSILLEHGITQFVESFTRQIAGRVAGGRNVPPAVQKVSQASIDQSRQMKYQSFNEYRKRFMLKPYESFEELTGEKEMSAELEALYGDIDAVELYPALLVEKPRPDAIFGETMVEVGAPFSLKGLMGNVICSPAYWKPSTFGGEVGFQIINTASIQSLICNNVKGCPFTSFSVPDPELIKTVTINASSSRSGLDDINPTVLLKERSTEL
# COX-1 platelet activity = target: T3, COX-1 platelet activity (Homo sapiens, UniProt P23219); experiment: Ex vivo platelet COX-1 activity (serum TXB2) in subjects treated with rofecoxib; conditions: median (range); for Serum Thromboxane B2: rofecoxib 25 mg per day for 5 consecutive days; for COX-1 platelet activity, % of variation vs pretreatment values: 25 mg per day for 5 consecutive days
# T3 construct: 1 ml aliquots of isolated whole blood were immediately transferred into glass test tubes and kept at a temperature of 37°C; endogenous in cells; host or cells: platelets in human whole blood (healthy volunteers / study subjects)
# T3 sequence (P23219 24-599): as the sequence (P23219 24-599) above
# Method: (§3) Subjects with disturbances of a haemorrhagic nature, allergy to aspirin or to other non-steroidal anti-inflammatory drugs (NSAID) or with a history of gastrointestinal disorders were excluded from the study. The subjects refrained from using aspirin or other non-steroidal anti-inflammatory drugs (NSAID) for at least two weeks prior to the study. The blood samples were taken to determine COX-1 platelet activity and COX-2 monocyte activity before treatment with the drug and 12 hours after the last administration (at 8 a.m. on the sixth day of the study).
# (§4) The effects of Rofecoxib on COX-1 platelet activity were assessed (assessing the production of serum TXB2 as described in Patrono et al., Thromb Res 1980;17:317-27) and on COX-2 monocyte activity (measuring the production of PGE2 in whole blood stimulated with LPS, as described in Patrignani et al., J Pharmacol Exp Ther 1994;271:1705-12).
# [1] = test system: biosynthesis of Thromboxane A2; experiment: Urinary excretion of 11-dehydro-thromboxane B2 (index of systemic thromboxane A2 biosynthesis in vivo) after rofecoxib; parameters: species or system human; conditions: median (range); for 11-dehydro-thromboxane B2: rofecoxib 25 mg per day for 5 consecutive days, overnight urine; for urinary excretion of 11-dehydro-TXB2, % of pre-drug values: 25 mg per day for 5 days
# Text: (§1) The collection of overnight urine samples was obtained to assess the urinary excretion of 11-dehydro-thromboxane B2 and of 2,3-dinor-6-keto-PGF1α before treatment with the drug and after the last dose of rofecoxib.
# (§2) Biochim Biophys Acta 1987;918:293-7. […] J Pharmacol Exp Ther 1995;275:94-100).
# [2] = test system: biosynthesis of prostacyclin; experiment: Urinary excretion of 2,3-dinor-6-keto-PGF1α (index of systemic prostacyclin biosynthesis in vivo) after rofecoxib; parameters: species or system human; conditions: for percent change from pretreatment at 25 mg: Homo sapiens, 120 h
# Text: as §1, §2
# COX-2 monocyte activity [3] = target: T4, COX-2 monocyte activity (Homo sapiens, UniProt P35354); conditions: rofecoxib 25 mg per day for 5 consecutive days, median (range)
# Method: as §3, §4
# COX-2 monocyte activity [4] = target: T4, COX-2 monocyte activity; experiment: in vivo
# Method: as §3, §4
structure (smiles),measurement,setting,value
"Cc1onc(-c2ccccc2)c1-c1ccccc1 [2a (P10), 3,4-Diphenyl-5-methylisoxazole]",COX-1 inhibition (result in words),platelet COX-1,excellent COX-1 inhibitors
same,IC50,platelet COX-1,90 nM
same,IC50,monocyte COX-2,2490 nM
CS(=O)(=O)c1ccc(C2=C(c3ccccc3)C(=O)OC2)cc1 [Rofecoxib],Serum Thromboxane B2,"COX-1 platelet activity; ""Wild-type"" TLR4 subjects",233.5 (178-391) ng/ml
same,Serum Thromboxane B2,COX-1 platelet activity; Carriers of TLR4 Polymorphisms,225 (94-728) ng/ml
same,"COX-1 platelet activity, % of variation vs pretreatment values",COX-1 platelet activity; carriers of TLR4 polymorphism,-11(from 0 to -57) %
same,"COX-1 platelet activity, % of variation vs pretreatment values",COX-1 platelet activity; non carriers of TLR4 polymorphism,-10(from 0 to -10) %
same,11-dehydro-thromboxane B2,"[1]; ""Wild-type"" TLR4 subjects",345 (155-595.6) pg/mg creatinine
same,"urinary excretion of 11-dehydro-TXB2, % of pre-drug values","[1]; ""wild-type"" subjects",71 (67-84) %
same,11-dehydro-thromboxane B2,[1]; Carriers of TLR4 Polymorphisms,329 (158-587)^* pg/mg creatinine
same,"urinary excretion of 11-dehydro-TXB2, % of pre-drug values",[1]; carriers of TLR4 polymorphisms,174 (136-354) %
same,"2,3 dinor-6 keto-prostaglandin F1α","[2]; ""Wild-type"" TLR4 subjects, rofecoxib 25 mg per day for 5 consecutive days, overnight urine, median (range)",56.5(38-84)^* pg/mg creatinine
same,"2,3 dinor-6-keto-prostaglandin F1α","[2]; Carriers of TLR4 Polymorphisms, rofecoxib 25 mg per day for 5 consecutive days, overnight urine, median (range)",50 (28-93)^* pg/mg creatinine
same,percent change from pretreatment at 25 mg,"[2]; read-out: inhibition of the urinary excretion of 2,3-dinor-6-keto PGF1α, ""wild-type"" subjects (second value of 'respectively'), 25 mg per day for 5 days, median (range)",-61%
same,percent change from pretreatment at 25 mg,"[2]; read-out: inhibition of the urinary excretion of 2,3-dinor-6-keto PGF1α, carriers of TLR4 polymorphisms (first value of 'respectively'), 25 mg per day for 5 days, median (range)",-64%
same,inhibition of prostacyclin,[2]; similar in the two groups of patients (carriers of TLR4 polymorphisms and wild-type),about 60%
same,Prostaglandin E2 induced by lipopolysaccharide,"COX-2 monocyte activity [3]; ""Wild-type"" TLR4 subjects",2.3 (0.3-4.2) ^** ng/ml
same,Prostaglandin E2 induced by lipopolysaccharide,COX-2 monocyte activity [3]; Carriers of TLR4 Polymorphisms,5.3 (1.9-11)^** ng/ml
same,inhibition at 25 mg,"COX-2 monocyte activity [4]; read-out: monocyte COX-2 activity ex vivo, % inhibition, carriers of TLR4 polymorphism, 25 mg per day for 5 consecutive days, median (range)",-94%
same,inhibition at 25 mg,"COX-2 monocyte activity [4]; read-out: monocyte COX-2 activity ex vivo, % inhibition, non carriers of TLR4 polymorphism, 25 mg per day for 5 consecutive days, median (range)",-85%
"Cc1onc(-c2ccc(Cl)o2)c1-c1ccccc1 [2c (P6), 3-(5-Chloro-2-furyl)-4-phenyl-5-methylisoxazole]",COX-1 inhibition (result in words),platelet COX-1,excellent COX-1 inhibitors
same,suppression of platelet COX-1 activity,"platelet COX-1; at concentrations that do not affect monocyte COX-2 activity, concentration-response curves",> 90%
same,IC50,platelet COX-1,500 nM
same,effect on monocyte COX-2 activity,monocyte COX-2; at concentrations giving virtually complete suppression of platelet COX-1 activity,do not affect monocyte COX-2 activity
"CCc1onc(-c2ccccc2)c1-c1ccccc1 [2g (P9), 3,4-Diphenyl-5-ethylisoxazole]",COX-1 inhibition (result in words),platelet COX-1,excellent COX-1 inhibitors
same,IC50,platelet COX-1,50 nM
same,IC50,monocyte COX-2,1490 nM
